Data: patent EP4772530A1, “PEPTIDE TARGETING SOMATOSTATIN RECEPTOR, DRUG CONJUGATE AND USE THEREOF” (Mainline Biosciences (Shanghai) Co., Ltd., priority 2023, dated 2025)
Where two headings read alike, the source gives them in different places. *1 amine or outer side, *2 acyl side, *3 side chain or, on linkers, in order; H or OH if unused. Where a SMILES comes first, the peptide text is derived from it. Bridges are numbered along the chain shown (N, C = ends). Roman numbers before positions name the chains, in order. [ ]: non-standard residue; d: D form. The star is where a group is joined. X4 = CC(=O)N[C@@H](CSC1CC(=O)N(CCCCCC(=O)[*:2])C1=O)C(=O)NCCOCCOCCOCCOCCOCCOCCC(=O)[*:1]; Exatecan = CC[C@@]1(O)C(=O)OCc2c1cc1n(c2=O)Cc2c-1nc1cc(F)c(C)c3c1c2[C@@H](N*)CC3; X1 = O=C(O)[C@H]1O[C@@H](Oc2ccc(COC(=O)[*:2])cc2N[*:1])[C@H](O)[C@@H](O)[C@@H]1O; Hexanoyl(6-succinimido-3yl) = O=C1CC([*:1])C(=O)N1CCCCCC(=O)[*:2]; Dolaproine = CO[C@@H]([C@@H]1CCCN1)[C@@H](C)C(=O)O; X3 = O=C(CCCCCN1C(=O)CC([*:1])C1=O)NCCC(=O)[*:2]; Dil = CC[C@H](C)[C@H](NC)[C@@H](CC(=O)O)OC; PEG6 = NCCOCCOCCOCCOCCOCCOCCC(=O)O; NHCH2OCH2CO = O=C(COCN[*:1])[*:2]; X2 = C[C@@H](N*)[C@@H](O)c1ccccc1; NMeV = CN[C@H](C(=O)O)C(C)C; AEEA = NCCOCCOCC(=O)O

Tests used:
[1] = tested on: NCI-H69; test: Cell killing in NCI-H69 by CGT (CellTiter-Glo); assay type: cell-based; settings: NCI-H69, 96 h; for Bottom (Inhibition at Lowest Point) / Top (Inhibition at Highest Point): Inh% relative to DMSO control, 4-parameter fit
Method: Approximately 5 µL of the PDC was added to the corresponding wells of the plate, and compared with DMSO (control, without the PDC of the present application), PTX, MMAE, and Dxd wells. The final concentration of DMSO in each well was 0.2%; • (5) The cells were incubated in a 5% CO2 incubator at 37°C for 96 h; • (6) The cell culture plate was equilibrated to room temperature, and 50 µL of CellTiter-Glo® Reagent was added to each well; • (7) The plate was placed on a shaker for 2 min to ensure complete cell lysis; • (8) After mixing, the plate was placed at room temperature to react for 10 min. The fluorescence value (in RLU) was read when the signal became stable. • c) Data analysis • (1) The inhibition (Inh %) relative to the DMSO control was calculated as follows: Inhibition (Inh%)= 100 -(RLU of compound - RLU of DMSO control)/ (RLU of DMSO control - RLU of blank)*100% • (2) The data were analyzed using Graphpad 5.0 software. A 4-parameter equation was fitted to generate a concentration-response curve to obtain the IC50. Table 3: Test Results of Cell Killing in NCI-H69

[2] = molecular target: T1, SSTR2 (Homo sapiens, UniProt P30874); test: SSTR2 cAMP test; assay type: cell-based; settings: for activity at 50 µM: Max Dose 50000 nM; for EC50: SSTR2/CHO cells, Forskolin, cAMP activation rate
T1 construct: expressed in transfected cells; host or cells: CHO cells (SSTR2/CHO)
T1 sequence (P30874 whole entry): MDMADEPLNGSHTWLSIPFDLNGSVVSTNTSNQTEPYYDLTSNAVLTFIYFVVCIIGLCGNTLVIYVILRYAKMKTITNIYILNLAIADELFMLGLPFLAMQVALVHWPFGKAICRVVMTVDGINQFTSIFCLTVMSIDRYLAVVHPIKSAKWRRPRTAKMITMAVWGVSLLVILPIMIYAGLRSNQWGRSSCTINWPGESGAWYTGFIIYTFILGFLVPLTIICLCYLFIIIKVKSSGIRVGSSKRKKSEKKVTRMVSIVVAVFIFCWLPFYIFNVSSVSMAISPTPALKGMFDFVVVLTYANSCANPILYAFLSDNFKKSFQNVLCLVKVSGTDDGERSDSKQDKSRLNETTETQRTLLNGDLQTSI
Method: • 1) Compound preparation: The test compound was diluted by 4-fold with DMSO to obtain 10 different concentration points. Approximately 100 nL of the diluted compound was then transferred to a cell reaction plate and centrifuged for later use. • 2) Cell preparation:The cultured SSTR2/CHO cells were collected into a sterile centrifuge tube, and the supernatant was discarded by centrifugation. • 3) The cells were resuspended in assay buffer, counted using a Vi-cell counter, and diluted with assay buffer. • 4) Approximately 100 nL of 100 µM Forskolin was transferred into the cell reaction plate using an Echo and centrifuged. Then, 10 µL of assay buffer containing the cells was added and incubated. • 5) Approximately 10 µL of cAMP detection reagent solution was added to the corresponding wells of the cell reaction plate, and incubated at room temperature in the dark. • 6) The plate was read using a microplate reader. The final value was determined as the ratio of OD at 665 nm to that at 615 nm. • 7) The cAMP value was calculated for each well: Activity (%)=(signal value of sample well - mean signal value of low-signal control wells)/ (mean signal value of high-signal control wells - mean signal value of low-signal control wells). Fitting was performed using the "Nonlinear regression (curve fit)-log(agonist) vs. response -- Variable slope" model in GraphPad Prism 5.0, with the log-transformed compound concentration on the x-axis and cAMP activation rate on the y-axis. The EC50 value of the sample was calculated accordingly. Table 2: SSTR2 cAMP Test Results

SMILES | Bottom (Inhibition at Lowest Point) [1] | Top (Inhibition at Highest Point) [1] | activity at 50 µM [2] [%] | EC50 [2] [nM] | IC50 [1] [nM] | other results
CC[C@@]1(O)C(=O)OCc2c1cc1n(c2=O)Cc2c-1nc1cc(F)c(C)c3c1c2[C@@H](NC(=O)CO)CC3 [Dxd] | = 0.0 | 98.19 | – | – | – | IC50 ([1]; Homo sapiens): 7.53 nM
CC[C@H](C)[C@@H]([C@@H](CC(=O)N1CCC[C@H]1[C@H](OC)[C@@H](C)C(=O)N[C@H](C)[C@@H](O)c1ccccc1)OC)N(C)C(=O)[C@@H](NC(=O)[C@H](C(C)C)N(C)C(=O)OCc1ccc(O[C@@H]2O[C@H](C(=O)O)[C@@H](O)[C@H](O)[C@H]2O)c(NC(=O)CCNC(=O)CCCCCN2C(=O)CC(SC[C@H](NC(C)=O)C(=O)NCCOCCOCC(=O)NCCOCCOCC(=O)NCCOCCOCC(=O)N[C@@H](CCCNC(=N)N)C(=O)N[C@@H](CCCNC(=N)N)C(=O)N[C@@H](CC(C)C)C(=O)N[C@@H](Cc3ccccc3)C(=O)N[C@H]3CSSC[C@@H](C(=O)N[C@H](C(=O)N[C@@H](Cc4c[nH]c5ccccc45)C(=O)N[C@@H](CCCNC(=N)N)C(=O)N[C@@H](CC(=O)O)C(N)=O)[C@@H](C)O)NC(=O)[C@H]([C@@H](C)O)NC(=O)[C@H](CCCCN)NC(=O)[C@@H](Cc4c[nH]c5ccccc45)NC(=O)[C@H](Cc4ccc(O)cc4)NC3=O)C2=O)c1)C(C)C (stereo partly drawn) [Example 4, Ac-Cys(MC-betaglucuronide-MMAE)-AEEA-AEEA-AEEA-Arg-Arg-Leu-Phe-[Cys-Tyr-D-Trp-Lys-Thr-Cys]-Thr-Trp-Arg-Asp-NH2] (I: Ac-C[AEEA][AEEA][AEEA]RRLFCY[dW]KTCTWRD-NH2 / II: [X1][NMeV]V[Dil][Dolaproine]-X2; linker I:1-II:N via X3; disulfide I:9-I:14) | 3.88 | 75.08 | 95.2 | – | – | –
CC[C@@]1(O)C(=O)OCc2c1cc1n(c2=O)Cc2c-1nc1cc(F)c(C)c3c1c2[C@@H](NC(=O)COCNC(=O)CNC(=O)[C@H](Cc1ccccc1)NC(=O)CNC(=O)CNC(=O)CCCCCN1C(=O)CC(SC[C@H](NC(=O)CCOCCOCCOCCOCCOCCOCCN)C(=O)NCCOCCOCCOCCOCCOCCOCCC(=O)N[C@@H](CCCNC(=N)N)C(=O)N[C@@H](CCCNC(=N)N)C(=O)N[C@@H](CC(C)C)C(=O)N[C@@H](Cc2ccccc2)C(=O)N[C@H]2CSSC[C@@H](C(=O)N[C@H](C(=O)N[C@@H](Cc4c[nH]c5ccccc45)C(=O)N[C@@H](CCCNC(=N)N)C(=O)N[C@@H](CC(=O)O)C(N)=O)[C@@H](C)O)NC(=O)[C@H]([C@@H](C)O)NC(=O)[C@H](CCCCN)NC(=O)[C@@H](Cc4c[nH]c5ccccc45)NC(=O)[C@H](Cc4ccc(O)cc4)NC2=O)C1=O)CC3 (stereo partly drawn) [Example 5, PEG6-Cys(MC-Gly-Gly-Phe-Gly-NH-CH2-Dxd)-PEG6-Arg-Arg-Leu-Phe-[Cys-Tyr-D-Trp-Lys-Thr-Cys]-Thr-Trp-Arg-Asp-NH2] (I: H-[PEG6]C[PEG6]RRLFCY[dW]KTCTWRD-NH2 / II: GGFG[NHCH2OCH2CO]-Exatecan; linker I:2-II:N via Hexanoyl(6-succinimido-3yl); disulfide I:8-I:13) | – | – | 83.5 | 155 | 316 | –
CC[C@@]1(O)C(=O)OCc2c1cc1n(c2=O)Cc2c-1nc1cc(F)c(C)c3c1c2[C@@H](NC(=O)COCNC(=O)CNC(=O)[C@H](Cc1ccccc1)NC(=O)CNC(=O)CNC(=O)CCCCCN1C(=O)CC(SC[C@H](NC(C)=O)C(=O)NCCOCCOCCOCCOCCOCCOCCC(=O)N[C@@H](CCCNC(=N)N)C(=O)N[C@@H](CCCNC(=N)N)C(=O)N[C@@H](CC(C)C)C(=O)N[C@@H](Cc2ccccc2)C(=O)N[C@H]2CSSC[C@@H](C(=O)N[C@H](C(=O)N[C@@H](Cc4c[nH]c5ccccc45)C(=O)N[C@@H](CCCNC(=N)N)C(=O)N[C@@H](CC(=O)O)C(N)=O)[C@@H](C)O)NC(=O)[C@H]([C@@H](C)O)NC(=O)[C@H](CCCCN)NC(=O)[C@@H](Cc4c[nH]c5ccccc45)NC(=O)[C@H](Cc4ccc(O)cc4)NC2=O)C1=O)CC3 (stereo partly drawn) [Example 6, Ac-Cys(MC-Gly-Gly-Phe-Gly-NH-CH2-Dxd)-PEG6-Arg-Arg-Leu-Phe-[Cys-Tyr-D-Trp-Lys-Thr-Cys]-Thr-Trp-Arg-Asp-NH2] (I: Ac-C[PEG6]RRLFCY[dW]KTCTWRD-NH2 / II: GGFG[NHCH2OCH2CO]-Exatecan; linker I:1-II:N via Hexanoyl(6-succinimido-3yl); disulfide I:7-I:12) | – | – | 67.8 | 148 | 276 | –
CC[C@@]1(O)C(=O)OCc2c1cc1n(c2=O)Cc2c-1nc1cc(F)c(C)c3c1c2[C@@H](NC(=O)COCNC(=O)CNC(=O)[C@H](Cc1ccccc1)NC(=O)CNC(=O)CNC(=O)CCCCCN1C(=O)CC(SC[C@H](NC(C)=O)C(=O)NCCOCCOCCOCCOCCOCCOCCC(=O)NCCCC[C@H](NC(=O)CCOCCOCCOCCOCCOCCOCCNC(=O)[C@H](CSC2CC(=O)N(CCCCCC(=O)NCC(=O)NCC(=O)N[C@@H](Cc4ccccc4)C(=O)NCC(=O)NCOCC(=O)N[C@H]4CCc5c(C)c(F)cc6nc7c(c4c56)Cn4c-7cc5c(c4=O)COC(=O)[C@]5(O)CC)C2=O)NC(C)=O)C(=O)N[C@@H](CCCCNC(=O)CCOCCOCCOCCOCCOCCOCCNC(=O)[C@H](CSC2CC(=O)N(CCCCCC(=O)NCC(=O)NCC(=O)N[C@@H](Cc4ccccc4)C(=O)NCC(=O)NCOCC(=O)N[C@H]4CCc5c(C)c(F)cc6nc7c(c4c56)Cn4c-7cc5c(c4=O)COC(=O)[C@]5(O)CC)C2=O)NC(C)=O)C(=O)NCCOCCOCCOCCOCCOCCOCCC(=O)N[C@@H](CCCNC(=N)N)C(=O)N[C@@H](CCCNC(=N)N)C(=O)N[C@@H](CC(C)C)C(=O)N[C@@H](Cc2ccccc2)C(=O)N[C@H]2CSSC[C@@H](C(=O)N[C@H](C(=O)N[C@@H](Cc4c[nH]c5ccccc45)C(=O)N[C@@H](CCCNC(=N)N)C(=O)N[C@@H](CC(=O)O)C(N)=O)[C@@H](C)O)NC(=O)[C@H]([C@@H](C)O)NC(=O)[C@H](CCCCN)NC(=O)[C@@H](Cc4c[nH]c5ccccc45)NC(=O)[C@H](Cc4ccc(O)cc4)NC2=O)C1=O)CC3 (stereo partly drawn) [Example 7, Ac-Cys(MC-Gly-Gly-Phe-Gly-NH-CH2-Dxd)-PEG6-Lys(Ac-Cys(MC-Gly-Gly-Phe-Gly-NH-CH2-Dxd)-PEG6)-Lys(Ac-Cys(MC-Gly-Gly-Phe-Gly-NH-CH2-Dxd)-PEG6)-PEG6-Arg-Arg-Leu-Phe-[Cys-Tyr-D-Trp-Lys-Thr-Cys]-Thr-Trp-Arg-Asp-NH2] (I: Ac-C[PEG6]KK[PEG6]RRLFCY[dW]KTCTWRD-NH2 / II: GGFG[NHCH2OCH2CO]-Exatecan / III: GGFG[NHCH2OCH2CO]-Exatecan / IV: GGFG[NHCH2OCH2CO]-Exatecan; linker I:1-III:N via Hexanoyl(6-succinimido-3yl); linker I:3-II:N, I:4-IV:N via X4; disulfide I:10-I:15) | – | – | 54.4 | 23400 | 122 | –
CCC(C)C(C(CC(=O)N1CCCC1C(OC)C(C)C(=O)NC(C)C(O)c1ccccc1)OC)N(C)C(=O)C(NC(=O)C(NC)C(C)C)C(C)C (centres unmarked) [MMAE] | 0.31 | 85.99 | – | – | – | IC50 ([1]; Homo sapiens, read-out: IC50): 0.57 nM
CC(=O)O[C@H]1C(=O)[C@@]2(C)[C@H]([C@H](OC(=O)c3ccccc3)[C@]3(O)C[C@H](OC(=O)[C@H](O)[C@@H](NC(=O)c4ccccc4)c4ccccc4)C(C)=C1C3(C)C)[C@]1(OC(C)=O)CO[C@@H]1C[C@@H]2O [PTX] | 0.47 | 78.37 | – | – | – | IC50 ([1]; read-out: IC50): 3.74 nM
CC(C)C[C@H](NC(=O)[C@H](CCCNC(=N)N)NC(=O)[C@@H](N)CCCNC(=N)N)C(=O)N[C@@H](Cc1ccccc1)C(=O)N[C@H]1CSSC[C@@H](C(=O)N[C@H](C(=O)N[C@@H](Cc2c[nH]c3ccccc23)C(=O)N[C@@H](CCCNC(=N)N)C(=O)N[C@@H](CC(=O)O)C(N)=O)[C@@H](C)O)NC(=O)[C@H]([C@@H](C)O)NC(=O)[C@H](CCCCN)NC(=O)[C@@H](Cc2c[nH]c3ccccc23)NC(=O)[C@H](Cc2ccccc2)NC1=O [SEQ ID No. 2, H-Arg-Arg-Leu-Phe-[Cys-Phe-D-Trp-Lys-Thr-Cys]-Thr-Trp-Arg-Asp-NH2] (H-RRLFCF[dW]KTCTWRD-NH2; disulfide 5-10) | – | – | – | 35.4 | – | activity at 150 µM ([2]; Max Dose 150000 nM): 99.1%
